According to PMC7707092, “Discovery and characterization of ORM‐11372, a novel inhibitor of the sodium‐calcium exchanger with positive inotropic activity” (British Journal of Pharmacology, 2020):
Where two headings read alike, the source gives them in different places.

What was measured:
[1] = biological target: hNCX1 (Homo sapiens, UniProt P32418); assay: Confirmatory fluorescence assay for hNCX1 inhibition (forward mode, HEK293 cells, Charles River); assay type: cell-based; details: HEK293, forward mode
Protocol: A confirmatory hNCX1 inhibition assay was performed in Charles River Laboratories, Cleveland. Briefly, HEK293 cells stably expressing hNCX1 were plated in 384‐well black wall, clear‐bottom microtitre plates and the next day loaded with Fluo‐8 for 30 min at 37°C. A plate was inserted into a FLIPR^TETRA, and a baseline was recorded during a preincubation period where test compound or vehicle in a Na^+‐free HB‐PS containing thapsigargin (6 μM) and […] (30 μM) was added to each well for ~5 min. Next, the NCX1 stimulation period was recorded in which Na^+‐containing HB‐PS (with 2‐μM thapsigargin and 10‐μM FCCP) was added. The experiments were performed at room temperature. The kinetic data generated were reduced for each well to maximum relative fluorescence units (RFU) minus minimum RFU after subtracting bias based on the first sample. The mean of the max–min RFU values during the stimulation period for the 3–4 replicates at each concentration on a plate was then plotted versus concentration and fitted to a Hill equation.

[2] = biological target: hERG (Homo sapiens, UniProt Q12809); assay: hERG IC50 of Table 1 / Table S2 (method not assigned); assay type: cell-based; details: n=4 assays
hERG, sequence (Q12809 whole entry): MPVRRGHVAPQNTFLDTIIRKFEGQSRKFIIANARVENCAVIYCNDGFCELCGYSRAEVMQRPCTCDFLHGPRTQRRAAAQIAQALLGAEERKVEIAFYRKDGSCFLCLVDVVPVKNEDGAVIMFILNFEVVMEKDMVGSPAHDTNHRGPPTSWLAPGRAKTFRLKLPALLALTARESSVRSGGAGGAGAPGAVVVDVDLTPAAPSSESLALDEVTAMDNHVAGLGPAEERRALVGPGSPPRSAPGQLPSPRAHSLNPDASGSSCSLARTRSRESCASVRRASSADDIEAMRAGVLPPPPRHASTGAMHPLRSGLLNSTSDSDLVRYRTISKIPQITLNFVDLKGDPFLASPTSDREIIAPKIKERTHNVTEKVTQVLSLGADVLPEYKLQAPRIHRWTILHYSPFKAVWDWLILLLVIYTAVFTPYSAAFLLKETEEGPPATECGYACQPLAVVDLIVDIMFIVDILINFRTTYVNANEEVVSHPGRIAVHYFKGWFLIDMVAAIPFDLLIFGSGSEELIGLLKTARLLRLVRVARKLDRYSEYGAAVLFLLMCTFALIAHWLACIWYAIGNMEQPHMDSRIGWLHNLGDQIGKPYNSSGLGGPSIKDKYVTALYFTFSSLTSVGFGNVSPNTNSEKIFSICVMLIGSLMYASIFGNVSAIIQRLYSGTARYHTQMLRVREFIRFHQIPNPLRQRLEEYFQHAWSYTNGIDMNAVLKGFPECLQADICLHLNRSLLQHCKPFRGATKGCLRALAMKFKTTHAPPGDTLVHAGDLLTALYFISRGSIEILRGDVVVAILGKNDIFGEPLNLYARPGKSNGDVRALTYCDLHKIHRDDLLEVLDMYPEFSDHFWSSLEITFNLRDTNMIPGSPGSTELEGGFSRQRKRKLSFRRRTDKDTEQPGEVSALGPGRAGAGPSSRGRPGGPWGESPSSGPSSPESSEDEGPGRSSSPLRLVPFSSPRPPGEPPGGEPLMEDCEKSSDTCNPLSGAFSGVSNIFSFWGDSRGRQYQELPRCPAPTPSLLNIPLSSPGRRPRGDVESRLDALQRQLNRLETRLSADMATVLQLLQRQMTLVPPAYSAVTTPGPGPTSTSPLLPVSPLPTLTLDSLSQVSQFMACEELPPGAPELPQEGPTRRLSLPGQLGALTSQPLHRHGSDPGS

[3] = biological target: T1, MAO A (Homo sapiens, UniProt P21397); assay: MAO A inhibition (Table S2); assay type: biochemical
T1 sequence (P21397 1-527): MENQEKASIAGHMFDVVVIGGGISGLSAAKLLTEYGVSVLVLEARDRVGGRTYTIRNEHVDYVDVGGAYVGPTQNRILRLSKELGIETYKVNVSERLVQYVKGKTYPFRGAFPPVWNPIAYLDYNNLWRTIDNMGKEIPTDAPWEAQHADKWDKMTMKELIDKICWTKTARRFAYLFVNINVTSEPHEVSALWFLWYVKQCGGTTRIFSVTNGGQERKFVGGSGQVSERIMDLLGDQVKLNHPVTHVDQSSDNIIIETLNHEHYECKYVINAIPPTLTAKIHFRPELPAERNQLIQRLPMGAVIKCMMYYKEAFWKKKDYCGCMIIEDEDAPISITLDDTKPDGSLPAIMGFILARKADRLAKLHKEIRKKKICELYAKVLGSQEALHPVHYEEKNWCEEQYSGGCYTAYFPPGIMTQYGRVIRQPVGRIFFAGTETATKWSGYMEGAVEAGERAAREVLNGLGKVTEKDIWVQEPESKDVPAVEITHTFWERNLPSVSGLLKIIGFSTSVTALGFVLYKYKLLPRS

[4] = test system: NCX; set-up: method as in Jost et al., 2013; Kohajda et al., 2016; details: Dog, reference not given, ref Jost et al., 2013, Kohajda et al., 2016, cited from earlier work
[5] = test system: human iPS cardiomyocyte action potentials; assay: Action potentials in spontaneously beating hiPSC cardiomyocytes (Cor.4U); assay type: cell-based; details: 0.1 or 0.3 μM
Protocol: APs were recorded in spontaneously beating Cor.4U CMs in the current clamp using the perforated patch technique and voltage‐sensitive dye (di‐4‐ANEPPS), in a 96‐well plate format. The latter ratiometric optical measurements were performed on the CellOPTIQ platform at Clyde Biosciences (Newhouse, UK).
Effect of ORM-11372 (A: 0.1 µM; B: 0.3 µM) on human iPS cardiomyocyte action potentials. A left, Action potentials recorded in current-clamp at baseline (black trace), during exposure to ORM-11372 (red trace) and during wash off (grey trace). The dashed line denotes 0 mV. On the right is plotted, for the individual cardiomyocytes (n = 4), the action potential duration (APD) at 30, 50 and 90 % repolarisation in 0.1 µM ORM-11372 as the percentage of their baseline values. B, Action potentials and APDs recorded with voltage sensitive dye at baseline (black trace) and after 30 min treatment with either vehicle (0.1 % DMSO; blue trace and circles) or 0.3 µM ORM-11372 (red trace and squares). The APDs at 30, 50 and 90 % repolarisation […]
vehicle and ORM-11372 (*p<0.05 unpaired Student’s t-test).
(1 picture or pasted object on this page, not shown here)

[6] = test system: human ventricular trabeculae
[7] = Table S2, read-out: hNCX1-HEK IC50

Structure (SMILES)	IC50 [1, 7] [nM]	IC50 [2] [nM]	MAO A inhibition ([3]; 10 μM) [%]	IC50 ([4]; read-out: IC50 NCX forward) [nM]	IC50 ([4]; read-out: IC50 NCX reverse) [nM]	IC50 ([1]; 0.3% DMSO, read-out: IC50 hNCX1 calcium efflux signal) [nM]	IC50 ([1]; 1% DMSO, read-out: IC50 hNCX1 calcium efflux signal) [nM]	hiPSC‐CM APD [5]	inhibition at 10 µM ([3]; 10 μM) [%]	STV and triangulation (pro‐arrhythmia markers) ([6]; 1 or 2 Hz, ORM‐11372 any tested concentration, dofetilide 0.1 μM (positive control))	APD30, APD50 and APD90 ([6]; up to 10 μM, 1‐ and 2‐Hz pacing)	IC50 [3] [nM]
O=C(CN1CCC(O)CC1)Nc1ccc(Oc2ccc3c(c2)CCC(c2ccccc2)O3)nc1 (stereo not drawn) [ORM-10962]	630	3400	11	67	55							
Nc1cccc(-c2ccc(CNc3ccc(F)cc3)o2)c1 [ORM‐11372]		10600				142	164	significant shortening	29	no effects	no significant changes	
CCOc1ccc(Oc2ccc(OCc3cc(F)ccc3F)cc2)c(N)c1 [SEA0400, reference compound]	2210	2800										4340
